Experimental data as given in patent US10226503B2, “Plant extract composition for reducing topical fat and promoting weight loss as well as applications thereof” (Caliway Biopharmaceuticals Co., Ltd., priority 2014, dated 2019).

Experiments:
[1] = Embodiment 10: resveratrol:curcumin ratio effect (with ELP) on body weight gain of high-fat diet rats; assay type: in vivo, Sprague-Dawley rats; conditions: 5 mg/mL with ELP, relative to HFD group 100.0±25.7%
Method: The body weight of each rat was recorded and defined as the “post-experimental body weight” of each rat. The “total body weight gain” of each rat was obtained by subtracting its “pre-experimental body weight” from its “post-experimental body weight”. The “relative weight gain” was obtained by dividing the total body weight gain of each group by the total body weight gain of the HFD group.
The only differences were the ratio of resveratrol and curcumin.
In this experiment, the ratios of resveratrol to curcumin in the first group to the eighth group were 0:1, 1:0, 1:19, 9:1, 1:1, 1:30, 1:50, 20:1, respectively, and the final concentrations of resveratrol and curcumin in the pharmaceutical compositions prepared in the first to the eighth group were 5 mg/mL. That is, the preparation method of pharmaceutical composition in the first to the eighth group, the weight ratios of resveratrol to curcumin were 0:1, 1:0, 1:19, 9:1, 1:1, 1:30, 1:50, 20:1, respectively, and the final concentrations of resveratrol and curcumin in the prepared pharmaceutical compositions were 5 mg/mL. Wherein, when the final concentration of drug was presented as mg/mL, it indicated the number of milligrams of resveratrol and curcumin per milliliter of pharmaceutical composition.

[2] = test system: lower inguinal subcutaneous fat; test: Embodiment 10: resveratrol:curcumin ratio effect (with ELP) on subcutaneous fat of high-fat diet rats; assay type: in vivo, Sprague-Dawley rats; conditions: 5 mg/mL with ELP, injected as in Embodiment 9, relative to HFD group 100±22.3%
Source text: The bilateral lower inguinal subcutaneous fat pads of rats were dissected and weighed, and the weights of the bilateral lower inguinal subcutaneous fat pads were summed to calculate the amount of lower inguinal subcutaneous fat. […] The data were presented as mean±SD and analyzed by one-way ANOVA. Statistical results were shown as symbols or letters. Different symbols or letters indicates statistically significant difference (p<0.05), and identical symbols or letters indicates no statistically significant difference (p>0.05).
The preparation of pharmaceutical composition (curcumin solution, resveratrol solution, UL003C solution, UL003R solution, UL005 solution, UL006 solution, UL003C6 solution, or UL003R4 solution) in each group was roughly the same as the experimental procedure in Experiment 9. The only differences were the ratio of resveratrol and curcumin. In this experiment, the guideline of adding all of the ratio of resveratrol and curcumin, the weight of ELP, and the weight of normal saline for injection was shown in Table 1.
In this experiment, the ratios of resveratrol to curcumin in the first group to the eighth group were 0:1, 1:0, 1:19, 9:1, 1:1, 1:30, 1:50, 20:1, respectively, and the final concentrations of resveratrol and curcumin in the pharmaceutical compositions prepared in the first to the eighth group were 5 mg/mL. […]

[3] = test system: adipose tissue in the inferior inguinal region; test: Embodiment 10: observation of the injected inferior inguinal region after dissection; assay type: in vivo, Sprague-Dawley rats; conditions: FIG. 11A-F
Source text: There were 9 groups in this experiment, that is, the HFD group, the curcumin group, the resveratrol group, the UL003C group, the UL003R group, the UL005 group, the UL006 group, the UL003C6 group, and the UL003R4 group. The rats were fed and injected in the same manner described in Embodiment 9.

[4] = test system: mature adipocytes (3T3-L1); test: Adipocyte apoptosis assay (V), Annexin V/PI flow cytometry; assay type: cell-based; conditions: 50 ppm, 24 hours, DMSO control 5.14±2.05%
Method: 3T3-L1 cells were incubated in 12-well plates with 1×10^5 cells per well. The medium was replaced with a DMI medium containing 5 μg/ml of insulin, 0.1 μM of dexamethasone, and 0.5 mM of 3-isobutyl-1-methylxanthine (referred as IBMX) on the third day of incubation. After seven days incubation in the medium containing differentiation agent and waiting until the adipocyte cells matures, with the exception of the DMSO solvent control group, 50 ppm of curcumin, resveratrol, composition UL003C6, composition UL003C5, composition UL003C4, composition UL003C3, composition UL003C2, composition UL003C1, composition UL003B, composition UL003R1, composition UL003R2, and composition UL003R3 were added to different wells respectively; there are 13 groups in the experiment, and four replicates were performed in each group.
Please refer to Table 1, which presents the experimental matters and their final concentration in each group. […]
After administration process and 24 hours incubation, cells were collected and Annexin V/PI stain was performed. Cell apoptosis was analyzed by flow cytometry, wherein Annexin V−PI− cells represented the number of the survival mature adipocytes, and Annexin V+PI+ cells represented the number of the apoptotic mature adipocytes; this method is used to compare the apoptosis degree induced by the experimental matters in each group.

[5] = test system: mature adipocytes (3T3-L1); test: Adipocyte apoptosis assay (IV), Annexin V/PI flow cytometry; assay type: cell-based; conditions: 100 ppm, 24 hours
Method: In this embodiment, the effect of composition UL003C in the present invention on mature adipocytes apoptosis promotion was compared with that of the well-known sodium deoxycholate. In this embodiment, 3T3-L1 cells were incubated in 12-well plates with 1×10^5 cells per well. The medium was replaced with an incubation fluid containing 5 μg/ml of insulin differentiation agent, 1 μM of dexamethasone, and 0.5 mM of 3-isobutyl-1-methylxanthine on the fourth day of incubation. After four days incubation in the incubation fluid containing differentiation agent and waiting until the adipocyte cells matures, with the exception of the DMSO solvent control group, 100 ppm of composition UL003C and sodium deoxycholate were added to different wells respectively; there are three groups in the experiment, and three replicates were performed in each group. After administration process and 24 hours incubation, cells were collected and Annexin V/PI stain was performed. Cell apoptosis was analyzed by flow cytometry, wherein Annexin V−PI− cells represented the number of the survival mature adipocytes, and Annexin V+PI+ cells represented the number of the apoptotic mature adipocytes; this method is used to compare the apoptosis degree induced by the experimental matters in the two groups.

Row | Compound | relative weight gain [1] [%] | relative weight of the lower inguinal subcutaneous fat [2] [%] | ulcer / curcumin precipitation in the inferior inguinal region (injection site) [3] | percentage of apoptotic cells [4] [%] | mature adipocytes apoptosis compared to DMSO solvent control group [5]
1 | COc1cc(/C=C/C(=O)CC(=O)/C=C/c2ccc(O)c(OC)c2)ccc1O [curcumin] | 103.6±7.2 | 90.4±12.6 | curcumin precipitation was observed | 15.43±4.31 | –
2 | Oc1ccc(C=Cc2cc(O)cc(O)c2)cc1 [resveratrol] | 91.7±11.4 | 85.7±5.1 | ulcer | 8.48±3.23 | –
3 | sodium deoxycholate | – | – | – | – | no significant difference
